Laboratory results published in paper PMC11089511 (Journal of Medicinal Chemistry, 2024).

Key:
[1] = cited from earlier work
[2] = cited from earlier work; remark: listed apart in the source
[3] = cited from earlier work; remark: listed apart in the source
[4] = target: wild-type TTR in human plasma (Homo sapiens, UniProt P02766); test: Ex vivo competitive binding assay using a fluorogenic probe in human plasma; conditions: for binding to TTR in human plasma (probe fluorescence intensity), in words: 6 h of incubation, Figure 3 / Figures S2–S4

For O=C(O)c1ccc2nc(-c3cc(Cl)cc(Cl)c3)oc2c1 [Compound 1, Tafamidis], the “aqueous solubility pH 6.8” value [1] is listed as over 100 μM, the PAMPA permeability [2] is listed as >50 ×10^–6 cm/s and the “hepatic microsome stability in rats” value [3] is listed as 38.7 mL/min/kg.

In the case of CCc1oc2ccccc2c1C(=O)c1cc(I)c(O)c(I)c1 [Compound 3, benziodarone], the “fluorescence intensity of the probe relative to the control (DMSO)” value ([4]; compound 20 μM, human plasma with 5 μM TTR, Figure 2) is reported as “approximately 30%”.

In the case of CCc1sc2ccccc2c1C(=O)c1cc(I)c(O)c(I)c1 [Compound 14, (2-Ethylbenzo[b]thien-3-yl)(4-hydroxy-3,5-diiodophenyl)methanone], the “binding to TTR in human plasma (probe fluorescence intensity), in words” value (“binding to TTR in human plasma” for short) [4] is reported as “weaker binding compared to 3”.

For CCc1oc2ccc(Cl)c(Cl)c2c1C(=O)c1cc(I)c(O)c(I)c1 [Compound 18, (4,5-Dichloro-2-ethylbenzofuran-3-yl)(4-hydroxy-3,5-diiodophenyl)methanone], the “binding to TTR in human plasma” value [4] was “remarkably reduced compared to that of 7”.

With CCc1oc2c(Cl)c(Cl)ccc2c1C(=O)c1cc(I)c(O)c(I)c1 [Compound 19, (6,7-Dichloro-2-ethylbenzofuran-3-yl)(4-hydroxy-3,5-diiodophenyl)methanone] the “binding to TTR in human plasma” value [4] was “remarkably reduced compared to that of 7”.
